# Entries after “also recorded” stand apart in the source; their conditions may differ.
# Assays:
# [1] = tested on: HLA alleles of class II; test: Affinity of epitopes for HLA alleles of class II; type: binding, human; conditions: Table 2
# Excerpt: (§1) The multiepitopic peptide compounds (24 to 40-mer), having a high affinity with a maximized number of HLA molecules of class I and of class II, such as the affinities for the alleles HLA of class I and HLA of class II of the epitopes in the peptides of the sequences SEQ ID NO: 22, 23, 65, 66, 69, 73, 77, 96, 97, 137, 138, and 157, 185, have a high immunoprevalent potential corresponding to an optimal vaccine coverage, in particular for the populations concerned. The degree of coverage of the peptide compounds of the invention show a very high added value compared with the peptides of the prior art.
# [2] = tested on: HLA alleles of class I; test: Affinity of epitopes for HLA alleles of class I; type: binding, human; conditions: for Concatenation affinity allele CII: PSA KC-2.6 Peptide CII; for Affinity allele class I: LmLRAB-IIA peptides; for Affinity for the HLA alleles of class I: H2B-1 epitopes, Table 1
# Excerpt: as §1
# [3] = LmlRAB-IIB Peptide CII, Table 2
sequence,measurement,setting,value
IVADHMPHL (Leishmania major) [SEQ ID NO: 89],Concatenation affinity for HLA alleles of class II,[1]; LmLRAB-IIA core,"HLA-DRB1*03:01,; also recorded: HLA-DRB1*13:02,; also recorded: HLA-DRB3*01:01"
same,Affinity for HLA alleles of class I,"[2]; LmLRAB-IIA core, Table 2","HLA-A*02:01,; also recorded: HLA-A*02:03,; also recorded: HLA-A*02:06"
ARSARSGEGY (listed as Leishmania infantum) [SEQ ID NO: 151],Concatenation affinity allele CII,[2]; Table 3,HLA-B*15:01
FTDVHYSEV (Leishmania major) [SEQ ID NO: 121],Concatenation affinity for HLA alleles of class II,[1]; LmlRAB-IIB core,"HLA-DRB1*07:01,; also recorded: HLA-DRB1*09:01,; also recorded: HLA-DRPA*01:03/; also recorded: DPB1*04:01,; also recorded: HLA-DPA1*01:03/; also recorded: DPB1*02:01"
same,Affinity for HLA alleles of class I,"[2]; LmlRAB-IIB core, Table 2","HLA-A*02:01,; also recorded: HLA-A*02:03,; also recorded: HLA-A*02:06,; also recorded: HLA-A*35:01,; also recorded: HLA-A*68:02"
RSARSGEGYF (listed as Leishmania infantum) [SEQ ID NO: 156],Concatenation affinity allele CII,[2]; Table 3,"HLA-B*15:01, HLA-B*58:01"
FDLFTDVHY (Leishmania major) [SEQ ID NO: 130],Concatenation affinity for HLA alleles of class I,[2]; [3],"HLA-A*02:01, HLA-B*35:01"
RSARSGEGY (listed as Leishmania infantum) [SEQ ID NO: 155],Concatenation affinity allele CII,[2]; Table 3,"HLA-A*30:02, HLA-B*15:01, HLA-B*57:01,; also recorded: HLA-B*58:01"
SVVGRHLSI (Leishmania major) [SEQ ID NO: 94],Affinity allele class I,[2]; Table 2,"HLA-A*02:03, HLA-A*02:06, HLA-A*32:01,; also recorded: HLA-B*08:01"
ARSGEGYFL (listed as Leishmania infantum) [SEQ ID NO: 152],Concatenation affinity allele CII,[2]; Table 3,HLA-B*39:01
KVQEEVFDL (Leishmania major) [SEQ ID NO: 132],Concatenation affinity for HLA alleles of class I,[2]; [3],"HLA-A*02:01, HLA-A*02:06, HLA-A*32:01"
FLTDEKTSL (listed as Leishmania infantum) [SEQ ID NO: 146],Affinity HLA alleles of class I,"[2]; PSA KC-2.6 core, Table 3","HLA-A*02:01,; also recorded: HLA-A*02:03,; also recorded: HLA-A*02:06,; also recorded: HLA-B*39:01"
KGRSENAIV (Leishmania major) [SEQ ID NO: 131],Concatenation affinity for HLA alleles of class I,[2]; [3],HLA-A*30:01
VVGRHLSIV (Leishmania major) [SEQ ID NO: 95],Affinity allele class I,[2]; Table 2,HLA-A*02:03
TMKSMSHRTM (Leishmania major) [SEQ ID NO: 21],Affinity for the HLA alleles of class I,[2],"HLA-B*15:01,; also recorded: HLA-B*08:01"
LTDEKTSLVY (listed as Leishmania infantum) [SEQ ID NO: 154],Concatenation affinity allele CII,[2]; Table 3,"HLA-A*01:01, HLA-B*15:01"
SMIRDLDFS (listed as Leishmania infantum) [SEQ ID NO: 184],Concatenation affinity for HLA alleles of class I,"[2]; PSA KC-2.7 peptides, Table 3","HLA-A*02:03, HLA-A*02:06"
LFTDVHYSEV (Leishmania major) [SEQ ID NO: 133],Concatenation affinity for HLA alleles of class I,[2]; [3],HLA-A*01:01
SMSHRTMKSM (Leishmania major) [SEQ ID NO: 19],Affinity for the HLA alleles of class I,[2],"HLA-B*15:01,; also recorded: HLA-B*57:01,; also recorded: HLA-A*02:03,; also recorded: HLA-B*08:01"
VQEEVFDLF (Leishmania major) [SEQ ID NO: 126],Affinity for HLA alleles of class I,"[2]; LmlRAB-IIB core, Table 2",HLA-A*02:06
KEMPSGSDY (listed as Leishmania infantum) [SEQ ID NO: 180],Concatenation affinity for HLA alleles of class I,"[2]; PSA KC-2.7 peptides, Table 3","HLA-B*15:01, HLA-A*30:02,; also recorded: HLA-B*44:02, HLA-B*44:03"
KGRLHSVVG (Leishmania major) [SEQ ID NO: 92],Affinity allele class I,[2]; Table 2,HLA-A*30:1
SENAIVTSR (Leishmania major) [SEQ ID NO: 134],Concatenation affinity for HLA alleles of class I,[2]; [3],"HLA-A*31:01, HLA-B*44:03, HLA-A*68:01"
DVHYSEVSA (Leishmania major) [SEQ ID NO: 128],Concatenation affinity for HLA alleles of class I,[2]; [3],HLA-A*68*02
GSDYSHSMIR (listed as Leishmania infantum) [SEQ ID NO: 179],Concatenation affinity for HLA alleles of class I,"[2]; PSA KC-2.7 peptides, Table 3",HLA-A*03:01
MIRDLDFSNM (listed as Leishmania infantum) [SEQ ID NO: 181],Concatenation affinity for HLA alleles of class I,"[2]; PSA KC-2.7 peptides, Table 3",HLA-B*15:01

# — US11559575B2, “Multi-epitopic peptide compounds and vaccines against leishmaniasis” (INSTITUT DE RECHERCHE POUR LE DEVELOPPEMENT, priority 2018, dated 2023)
